Experimental data taken from article PMC12030359, “Fluorine-18-Labeled Positron Emission Tomography Probe Targeting Activated p38α: Design, Synthesis, and In Vivo Evaluation in Rodents” (Pharmaceuticals, 2025).
One block for each molecule: values may come before it.

What was measured:
[1] = In vitro stability analysis in mouse plasma; type: in vitro ADME; conditions: 2 h incubation in mouse plasma at 37 °C, normal-phase TLC
[2] = Log D measurement (1-octanol/PBS); type: physicochemical; conditions: 1-octanol/PBS (pH = 7.4), room temperature
Experimental: The mixture was shaken for 10 min at room temperature, followed by centrifugation at 10,000 rpm for 10 min. The radioactivity in each phase was measured using a γ counter.

[3] = Biodistribution study after intravenous administration in normal ddY mice; type: in vivo
Experimental: Mice (n = 20, 5 weeks old, 23–29 g) were randomly assigned to five groups (n = 4 each). […] Sample size was limited to four animals per group in adherence to ethical guidelines for the reduction of animal use. Target tissues, including BAT, blood, muscle, bone, brain, heart, lung, stomach, pancreas, spleen, kidneys, liver, and small and large intestines, were excised and weighed, and the radioactivity of each tissue was measured using a γ-counter. The accumulation of radioactivity was expressed as the percentage of the injected dose per gram of tissue (%ID/g) for all tissues except for the stomach, for which it was expressed as the percentage of the injected dose per organ (%ID).

[4] = PET/CT imaging of BAT in normal mouse; type: in vivo, ddY mice
Experimental: A small-animal PET/SPECT/CT scanner (E-Class VECTor^6CT^SD, MILabs, Utrecht, The Netherlands) was used, and it was equipped with a high-efficiency general purpose rat and mouse collimator. After the PET imaging, CT imaging was performed (exposure time: 40 ms, tube voltage: 55 kv, tube current: 0.33 mA). After the CT imaging, the mice were immediately euthanized under anesthesia, their BAT was removed and weighed, and its radioactivity was measured (n = 1). The raw data obtained from the PET scan were reconstructed using the SROSEM method and superimposed onto the CT images. […] The SUVs were then calculated using Amide software 1.0.6 (Slashdot Media, San Francisco, CA, USA).

activated p38α = system: activated p38α; set-up: method as in PMID 34410619, PMID 35760973; conditions: cited from earlier work
[5] = system: TNF-α and IL-6 production; set-up: method as in PMID 21375264; conditions: following oral administration; cited from earlier work
[6] = set-up: method as in PMID 21375264; conditions: acute and chronic toxicity tests in rats; cited from earlier work
[7] = set-up: method as in PMID 21375264; conditions: cited from earlier work
[8] = 5 min after i.v. administration
[9] = 15 min after i.v. administration
[10] = 30 min after i.v. administration
[11] = 60 min after i.v. administration
[12] = 120 min after i.v. administration

radioactivity detected in intact form [1]: more than 96% | logD [2]: 2.2 | Radioactivity in BAT [3, 8]: 16.3 ± 2.7 %ID/g | Radioactivity in Blood [3, 8]: 2.8 ± 0.1 %ID/g | Radioactivity in Bone [3, 8]: 6.4 ± 0.7 %ID/g | Radioactivity in Brain [3, 8]: 2.9 ± 0.5 %ID/g | Radioactivity in Heart [3, 8]: 5.0 ± 0.8 %ID/g | Radioactivity in Kidney [3, 8]: 7.7 ± 1.9 %ID/g | Radioactivity in Large intestine [3, 8]: 2.2 ± 0.7 %ID/g | Radioactivity in Liver [3, 8]: 11.3 ± 1.9 %ID/g | Radioactivity in Lung [3, 8]: 4.0 ± 0.6 %ID/g | Radioactivity in Muscle [3, 8]: 2.7 ± 0.5 %ID/g | Radioactivity in Pancreas [3, 8]: 4.4 ± 0.9 %ID/g | Radioactivity in Small intestine [3, 8]: 5.8 ± 1.0 %ID/g | Radioactivity in Spleen [3, 8]: 4.0 ± 0.9 %ID/g | Radioactivity in Stomach [3, 8]: 1.1 ± 0.2 %ID | Radioactivity in BAT [3, 9]: 8.0 ± 2.6 %ID/g | Radioactivity in Blood [3, 9]: 1.0 ± 0.2 %ID/g | Radioactivity in Bone [3, 9]: 5.1 ± 0.9 %ID/g | Radioactivity in Brain [3, 9]: 1.3 ± 0.6 %ID/g | Radioactivity in Heart [3, 9]: 2.8 ± 0.5 %ID/g | Radioactivity in Kidney [3, 9]: 5.1 ± 1.3 %ID/g | Radioactivity in Large intestine [3, 9]: 2.3 ± 0.4 %ID/g | Radioactivity in Liver [3, 9]: 5.9 ± 1.3 %ID/g | Radioactivity in Lung [3, 9]: 3.2 ± 0.8 %ID/g | Radioactivity in Muscle [3, 9]: 2.4 ± 0.3 %ID/g | Radioactivity in Pancreas [3, 9]: 2.4 ± 0.6 %ID/g | Radioactivity in Small intestine [3, 9]: 8.6 ± 1.9 %ID/g | Radioactivity in Spleen [3, 9]: 4.5 ± 0.8 %ID/g | Radioactivity in Stomach [3, 9]: 1.3 ± 0.5 %ID | Radioactivity in BAT [3, 10]: 5.2 ± 1.1 %ID/g | Radioactivity in Blood [3, 10]: 0.7 ± 0.1 %ID/g | Radioactivity in Bone [3, 10]: 6.7 ± 1.0 %ID/g | Radioactivity in Brain [3, 10]: 1.0 ± 0.6 %ID/g | Radioactivity in Heart [3, 10]: 2.3 ± 0.7 %ID/g | Radioactivity in Kidney [3, 10]: 3.5 ± 0.6 %ID/g | Radioactivity in Large intestine [3, 10]: 4.3 ± 3.7 %ID/g | Radioactivity in Liver [3, 10]: 4.7 ± 0.9 %ID/g | Radioactivity in Lung [3, 10]: 2.3 ± 0.5 %ID/g | Radioactivity in Muscle [3, 10]: 2.1 ± 0.2 %ID/g | Radioactivity in Pancreas [3, 10]: 1.9 ± 0.1 %ID/g | Radioactivity in Small intestine [3, 10]: 16.9 ± 4.0 %ID/g | Radioactivity in Spleen [3, 10]: 3.3 ± 0.5 %ID/g | Radioactivity in Stomach [3, 10]: 1.8 ± 0.4 %ID | Radioactivity in BAT [3, 11]: 2.2 ± 0.6 %ID/g | Radioactivity in Blood [3, 11]: 0.4 ± 0.1 %ID/g | Radioactivity in Bone [3, 11]: 6.9 ± 2.9 %ID/g | Radioactivity in Brain [3, 11]: 0.4 ± 0.2 %ID/g | Radioactivity in Heart [3, 11]: 1.4 ± 0.1 %ID/g | Radioactivity in Kidney [3, 11]: 2.4 ± 0.7 %ID/g | Radioactivity in Large intestine [3, 11]: 4.3 ± 1.6 %ID/g | Radioactivity in Liver [3, 11]: 3.4 ± 0.3 %ID/g | Radioactivity in Lung [3, 11]: 1.3 ±0.2 %ID/g | Radioactivity in Muscle [3, 11]: 1.0 ± 0.1 %ID/g | Radioactivity in Pancreas [3, 11]: 1.0 ± 0.1 %ID/g | Radioactivity in Small intestine [3, 11]: 23.8 ± 3.7 %ID/g | Radioactivity in Spleen [3, 11]: 1.7 ± 0.4 %ID/g | Radioactivity in Stomach [3, 11]: 4.1 ± 2.2 %ID | Radioactivity in BAT [3, 12]: 1.0 ± 0.2 %ID/g | Radioactivity in Blood [3, 12]: 0.2 ± 0.0 %ID/g | Radioactivity in Bone [3, 12]: 8.7 ± 2.3 %ID/g | Radioactivity in Brain [3, 12]: 0.2 ± 0.1 %ID/g | Radioactivity in Heart [3, 12]: 0.7 ± 0.1 %ID/g | Radioactivity in Kidney [3, 12]: 0.7 ± 0.1 %ID/g | Radioactivity in Large intestine [3, 12]: 32.6 ± 8.7 %ID/g | Radioactivity in Liver [3, 12]: 1.8 ± 0.9 %ID/g | Radioactivity in Lung [3, 12]: 0.4 ± 0.1 %ID/g | Radioactivity in Muscle [3, 12]: 0.5 ± 0.0 %ID/g | Radioactivity in Pancreas [3, 12]: 1.0 ± 0.4 %ID/g | Radioactivity in Small intestine [3, 12]: 13.0 ± 3.4 %ID/g | Radioactivity in Spleen [3, 12]: 0.9 ± 0.1 %ID/g | Radioactivity in Stomach [3, 12]: 1.2 ± 0.5 %ID | time of peak radioactivity in BAT ([3]; post-injection): 5 min | mean standardized uptake value (SUV) in the BAT ([4]; PET 10–15 min post-intravenous administration, manual ROI): 4.7 | radioactivity in the excised BAT after PET/CT imaging ([4]; γ counter, immediately after PET/CT imaging, n = 1): 11.6 %ID/g
Compound: Cn1c(=O)c(Oc2ccc([18F])cc2F)cc2cnc(NC3CCOCC3)nc21 [[^18F]R1487, 6-(4-[^18F]fluoro-2-fluorophenoxy)-8-methyl-2-(tetrahydro-2H-pyran-4-ylamino)-pyrido[2,3-d]pyrimidin-7(8H)-one]

Compound: Cn1c(=O)c(Oc2ccc([77Br])cc2F)cc2cnc(NC3CCOCC3)nc21 [[^77Br]4-BR, 6-(4-[^77Br]bromo-2-fluorophenoxy)-8-methyl-2-(tetrahydro-2H-pyran-4-ylamino)-pyrido[2,3-d]pyrimidin-7(8H)-one]
inflamed site-to-blood ratio (activated p38α; at 2 h): 4.1 | time of peak radioactivity accumulation in inflamed tissues (activated p38α; post-injection): 15 min

Compound: Cn1c(=O)c(Oc2ccc(F)cc2F)cc2cnc(NC3CCOCC3)nc21 [R1487, 6-(2,4-difluorophenoxy)-8-methyl-2-(tetrahydro-2H-pyran-4-ylamino)pyrido [2,3-d]pyrimidin-7(8H)-one]
production of TNF-α and IL-6 [5]: suppress | acceptable tolerability, no severe adverse events [6]: up to 10 mg/kg | clearance route [7]: predominantly hepatic clearance | oral bioavailability ([7]; monkeys, oral administration): 51.6% | half-life in blood ([7]; monkeys): 22.5 h
